What is called pIC50 is the negative decadic logarithm of the IC50, by convention in mol/L. A high value points to a low IC50. As a reminder, the EC50 is the midpoint of the concentration-response curve. In general, ED50 refers to the midpoint of the dose-response relation.

The source of these data is patent US4701459A, “7-amino-1,3-dihydro-2H-imidazo[4,5-b]quinolin 2-ones and method for inhibiting phosphodiesterase and blood platelet aggregation” (Bristol-Myers Company, priority 1986, dated 1987).

Assay [1] concerns cAMP phosphodiesterase (human platelets). Description: Inhibition of Cyclic AMP Phosphodiesterase. Format: biochemical. As to conditions: PDE from human platelets. Here is the method: Inhibition of Cyclic AMP Phosphodiesterase
This assay is carried out essentially as described by Thompson, et al., Methods in Enzymology, 38, 205-212 (1974). Briefly, tritium labeled cyclic adenosine monophosphate (cAMP) is incubated with a phosphodiesterase (PDE) enzynme obtained from human platelets which converts a portion of the cAMP to 5'AMP in culture tubes. This reaction is terminated by submerging the tubes in a boiling water bath after which they are placed on ice and an aliquot of snake venom is added to each tube. This, during a second incubation, converts the 5'AMP to adenosine. Ion exchange resin is added to bind the remaining cyclic AMP. The tubes are centrifuged to sediment the resin and a portion of the clear supernatent (which contains radioactive adenosine) is counted in a liquid scintillation counter. The cAMP phosphodiesterase inhibition activity of a test agent is determined by pre-incubating the PDE enzyme preparation with the test agent.

Assay [2] deals with platelet rich plasma (ADP and collagen-induced platelet aggregation). Briefly: In Vitro Inhibition of Platelet Aggregation (aggregometer method of Born, ADP- or collagen-induced). Format: cell-based. As to conditions: Oryctolagus cuniculus, rabbit PRP. An excerpt:
In Vitro Inhibition of Platelet Aggregation
The aggregometer method of Born (1), as modified by Mustard, et al. (2) was used to assess the in vitro activity of the various compounds as to inhibition of adenosine diphosphate (ADP) and collagen-induced platelet aggregation. Platelet rich plasma (PRP) was separated by centrifugation from citrated (3.8 percent) rabbit blood. […] The various compounds tested were dissovled in dimethylsulfoxide (DMSO) so that 5 mcl added to the platelet rich plasma would yield the desired test concentration. Vehicle control trials were done and compared with aggregation induced in platelet rich plasma containing various concentrations of the test compounds. Dose response curves were obtained and Effective Concentration (EC50) values calculated.

Assay [3] relates to ferrets. Description: Ferret In Vivo Inotropic Activity. As to conditions: anesthetized ferrets, monitored 60 minutes; for Maximum Percentage Change, Right Ventricular Contractile Force: percent change from predose control. The procedure:
In Vivo Inotropic Activity This test is carried out in ferrets as follows. Fasted anesthetized ferrets are instrumented to study hemodynamic parameters as well as right ventricular contractile force (RVCF) using a Walton-Brodie open strain guage arch. Drugs are administered intraduodenally as solutions in DMSO (1 mL or less) and effects on myocardial contractile force and other parameters are monitored for 60 minutes after dosing. Changes in contractile force in response to drug treatment are expressed in terms of percent change from predose control.

Assay [4] deals with platelet rich plasma (induced aggregation). Description: Inhibition of Platelet Aggregation Following Oral Administration (Ex vivo method). Type of assay: in vivo. As to conditions: Rattus norvegicus, rats, oral (gavage), 2 hours after dosing, vs. ADP. Here is the method: Inhibition of Platelet Aggregation Following Oral Administration
This test is sometimes referred to in the art as an Ex vivo method and was initially described by Fleming, et al., Arch. Int. Pharmacodyn. Ther., 199, 164 (1972). Briefly, the assay is essentially carried out as follows.
Aggregometry is performed in vitro as previously described on platelet rich plasma samples obtained from rats dosed with either test compounds or the vehicle. In all cases, activity is determined 2 hours after the drug is administered orally at various doses by gavage as a suspension in […] plus a few drops of Tween 20.

Where [5] appears, read: vs. ADP (0.5 mcg/ml), read-out: Platelet Inhibition In Vitro - Rabbit PRP EC50 vs. ADP.
Setting [6] is: vs. collagen, read-out: Platelet Inhibition In Vitro - Rabbit PRP EC50 vs. collagen.

pIC50: −log10 of the molar value. Values after ≈ are worked out from the molar mass of the structure shown. Like-named read-outs stand apart in the source and are kept apart here.

For the compound `CC(=O)Nc1ccc2nc3[nH]c(=O)[nH]c3cc2c1` [Example 4, N-(2,3-Dihydro-2-oxo-1H-imidazo[4,5-b]quinolin-7-yl)acetamide], the pIC50 in assay [1] was 6.15. Moreover, the EC50 in assay [2] (setting [5]) turned out to be 2 µg/mL (≈ 8.26 µM); in assay [2] (setting [6]), 0.8 µg/mL (≈ 3.3 µM).

Regarding `Nc1ccc2nc3[nH]c(=O)[nH]c3cc2c1` [Example 5, 7-Amino-1,3-dihydro-2H-imidazo[4,5-b]quinolin-2-one], the concentration for a half-maximal effect (EC50) in assay [2] (setting [6]) came to 0.4 µg/mL (≈ 2 µM).

As for `O=C(Nc1ccc2nc3[nH]c(=O)[nH]c3cc2c1)c1ccccc1` [Example 6, N-(2,3-Dihydro-2-oxo-1H-imidazo[4,5-b]quinolin-7-yl)benzamide], in assay [3] (3 mg/kg intraduodenal), the “Maximum Percentage Change, Blood Pressure” value is reported as -8 ± 6% and the “Maximum Percentage Change, Right Ventricular Contractile Force” value was 9 ± 4%. Besides, the pIC50 in assay [1] is 6.70. In assay [4], this compound returned an ED50 of 5.6 mg/kg.

Consider `O=c1[nH]c2cc3cc(N4CCCCC4)ccc3nc2[nH]1` [Example 7, 1,3-Dihydro-7-(1-piperidinyl)-2H-imidazo[4,5-b]quinolin-2-one], for which the “Maximum Percentage Change, Blood Pressure” value is on record as -21 ± 5% in assay [3] (0.3 mg/kg intraduodenal) and -39 ± 3% in assay [3] (3 mg/kg intraduodenal). For the same compound, the “Maximum Percentage Change, Right Ventricular Contractile Force” value amounted to 14 ± 12% in assay [3] (0.3 mg/kg intraduodenal) and 22 ± 8% in assay [3] (3 mg/kg intraduodenal). The compound also had an ED50 in assay [4] of 20 mg/kg. In addition, in assay [2] (setting [5]), the EC50 was 1 µg/mL (≈ 3.73 µM).

`O=c1[nH]c2cc3cc(N4CCCC4)ccc3nc2[nH]1` [Example 8, 1,3-Dihydro-7-(1-pyrrolidinyl)-2H-imidazo-[4,5-b]quinolin-2-one]: in assay [2] (setting [6]), the EC50 worked out at 0.4 µg/mL (≈ 1.57 µM).

As for `CCN(CC)c1ccc2nc3[nH]c(=O)[nH]c3cc2c1` [Example 9, 7-(Diethylamino)-1,3-dihydro-2H-imidazo[4,5-b]quinolin-2-one], the EC50 in assay [2] (setting [5]) amounted to 0.3 µg/mL (≈ 1.17 µM).

In assay [1], `O=c1[nH]c2cc3cc(N4CCOCC4)ccc3nc2[nH]1` [Example 10, 1,3-Dihydro-7-(4-morpholinyl)-2H-imidazo[4,5-b]quinolin-2-one] showed a pIC50 of 7.70. Moreover, the results for the EC50 in assay [2] (setting [5]) and in assay [2] (setting [6]) were 0.03 µg/mL (≈ 0.111 µM) and 0.02 µg/mL (≈ 0.074 µM), respectively.

Turning to `COC(=O)C1CCN(c2ccc3nc4[nH]c(=O)[nH]c4cc3c2)CC1` [Example 11, Methyl 1-(2,3-Dihydro-2-oxo-1H-imidazo[4,5-b]quinolin-7-yl)-4-piperidinecarboxylate], the EC50 in assay [2] (setting [5]) amounted to 0.04 µg/mL (≈ 0.123 µM); in assay [2] (setting [6]), 0.012 µg/mL (≈ 0.0368 µM).

In assay [1], `O=C(O)C1CCN(c2ccc3nc4[nH]c(=O)[nH]c4cc3c2)CC1` [Example 12, 1-(2,3-Dihydro-2-oxo-1H-imidazo[4,5-b]quinolin-7-yl)-4-piperidinecarboxylicAcid] gave a pIC50 of 7.70. For the same compound, the EC50 came out at 3.5 µg/mL (≈ 11.2 µM) in assay [2] (setting [5]) and 3 µg/mL (≈ 9.61 µM) in assay [2] (setting [6]).

Turning to `CCOC(=O)N1CCN(c2ccc3nc4[nH]c(=O)[nH]c4cc3c2)CC1` [Example 13, Ethyl 4-(2,3-Dihydro-2-oxo-1H-imidazo[4,5-b]quinolin-7-yl)-1-piperazinecarboxylate], the pIC50 in assay [1] is 6.15. The EC50 in assay [2] (setting [6]) was found to be 0.17 µg/mL (≈ 0.498 µM).

In assay [1], `O=C(c1ccccc1)N1CCN(c2ccc3nc4[nH]c(=O)[nH]c4cc3c2)CC1` [Example 14, 1-Benzoyl-4-(2,3-dihydro-2-oxo-1H-imidazo[4,5-b]quinolin-7-yl)piperazine] had a pIC50 of 6.22. The EC50 in assay [2] (setting [5]) came to 0.125 µg/mL (≈ 0.335 µM).

Regarding `COc1ccc(C(=O)N2CCN(c3ccc4nc5[nH]c(=O)[nH]c5cc4c3)CC2)cc1OC` [Example 15, 1-(2,3-Dihydro-2-oxo-1H-imidazo[4,5-b]quinolin-7-yl)-4-(3,4-dimethoxybenzoyl)piperazine], the EC50 in assay [2] (setting [5]) turned out to be 3 µg/mL (≈ 6.92 µM); in assay [2] (setting [6]), 2 µg/mL (≈ 4.61 µM).

On to `O=c1[nH]c2cc3cc(N4CCN(c5ccccc5)CC4)ccc3nc2[nH]1` [Example 16, 1,3-Dihydro-7-(4-phenyl-1-piperazinyl)-2H-imidazo[4,5-b]quinolin-2-one], for which the EC50 in assay [2] (setting [5]) amounted to 0.12 µg/mL (≈ 0.347 µM); in assay [2] (setting [6]), 0.025 µg/mL (≈ 0.0724 µM).

For the compound `CN(C(=O)C1CCN(c2ccc3nc4[nH]c(=O)[nH]c4cc3c2)CC1)C1CCCCC1` [Example 17, N-Cyclohexyl-1-(2,3-dihydro-2-oxo-1H-imidazo[4,5-b]quinolin-7-yl)-N-methyl-4-piperidinecarboxamide], the EC50 in assay [2] (setting [5]) stood at 1.5 µg/mL (≈ 3.68 µM); in assay [2] (setting [6]), 0.75 µg/mL (≈ 1.84 µM).

Regarding `OCCN(CCO)c1nc(N2CCCCC2)c2nc(N(CCO)CCO)nc(N3CCCCC3)c2n1` [dipyridamole, reference compound], in assay [4], the ED50 was over 100 mg/kg. Moreover, the EC50 in assay [2] (setting [5]) is […]; in assay [2] (setting [6]), […].

`Cc1[nH]c(=O)c(C#N)cc1-c1ccncc1` [milrinone, reference compound]: the “Maximum Percentage Change, Right Ventricular Contractile Force” value in assay [3] (3 mg/kg intraduodenal) is on record as 52%.
